What all share (test): NCI tumour cell line growth inhibition, 48 h
Assay [1] concerns OVCAR-5.
Assay [2] relates to NCI/ADR-RES.
In assay [3] the test system is A498.
Assay [4] has as its system 786-0.
For assay [5], the system named is NCI-H522.
Assay [6] relates to A549.
Assay [7] deals with MDA-MB-231.
Assay [8] has as its system K562.
Assay [9] has as its system U-251.
The subject of assay [10] is HL-60.
Assay [11] deals with NCI-H226.
Assay [12] has as its system CAKI-1.
Assay [13] concerns COLO 205.
Assay [14] concerns SNB-19.
Assay [15] relates to NCI-H460.
The test system of assay [16] is OVCAR-8.
In assay [17] the test system is TK-10.
In assay [18] the test system is OVCAR-3.
Assay [19] has as its system SK-MEL-28.
Assay [20] relates to SR.

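Values below derive from 48-hour exposures of cells grown in 96-well plates, with endpoints linearly interpolated between the two concentrations bracketing the appropriate inhibition level. At the GI50, growth is halved.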 Calls of active or inactive are those of the source. Cut-off read from the data, not from the text of the source: active = GI50 up to about 1.1 µM and inactive = higher.

On to `Nc1nc(N)c2cc(Sc3ccc4ccccc4c3)ccc2n1`, for which the GI50 in [1] was 3.48 µM (inactive); in assay [2] it was 1.07 µM (active); in assay [3], 11.5 µM (inactive); in [4], 0.479 µM (active); in assay [5], 2.2 µM (inactive); in assay [6], 0.343 µM (active). The GI50 in assay [7] is 2.54 µM (inactive); in [8], 0.211 µM (active); in assay [9], 2.15 µM (inactive); in assay [10], 1.38 µM (inactive); in assay [11], 10.7 µM (inactive); in assay [12], 4.52 µM (inactive). The GI50 was 1.63 µM (inactive) in assay [13]; 3.48 µM (inactive) in [14]; 0.682 µM (active) in assay [15]; 1 µM (active) in assay [16]; 3.1 µM (inactive) in assay [17]; 5.89 µM (inactive) in assay [18].
On to `c1ccc2c(c1)C(=Nc1ccc(N=C3c4ccccc4-c4ccccc43)cc1)c1ccccc1-2`, for which the GI50 in [1], in assay [2], in assay [3], in assay [4], in assay [5] and in assay [6] was > 100 µM (inactive) throughout. Further, the GI50 in [7] was > 100 µM (inactive); in [8], > 100 µM (inactive); in [9] it was > 100 µM (inactive); in assay [10], 54.1 µM (inactive); in assay [11], > 100 µM (inactive); in assay [12], > 100 µM (inactive). The GI50 in [13], in assay [14], in [15], in assay [16], in assay [17] and in assay [18] was > 100 µM (inactive) in each case.
Take `O=C(/C(=N/Nc1cn[nH]c(=O)c1Cl)c1ccccc1)c1ccccc1`: the GI50 in [2] is 17.5 µM (inactive); in assay [3], 14.7 µM (inactive); in assay [4], 16 µM (inactive); in [5], 17.1 µM (inactive); in assay [6], 18.3 µM (inactive); in assay [19], 45.1 µM (inactive). The GI50 in [7] was 24.7 µM (inactive); in assay [8] it was 24.5 µM (inactive); in assay [9], 26.9 µM (inactive); in assay [10] it was 16.8 µM (inactive); in assay [11], 25.3 µM (inactive); in assay [12], 19.7 µM (inactive). Further, the GI50 in [13] was 20.3 µM (inactive); in assay [14] it was 91.6 µM (inactive); in assay [16] it was 36.1 µM (inactive); in [17] it was 24.9 µM (inactive); in assay [18], 18 µM (inactive).
Take `COc1ccc(C2SC(=N)Nc3c2c(C)nn3C(=O)c2ccccc2O)cc1` (centres undefined): the GI50 was 8.09 µM (inactive) in assay [1]; 2.12 µM (inactive) in [2]; 1.31 µM (inactive) in assay [4]; 3.85 µM (inactive) in assay [5]; 0.412 µM (active) in [6]; > 10 µM (inactive) in [19]. Further, the GI50 was 0.986 µM (active) in assay [7]; 0.45 µM (active) in assay [8]; 0.9 µM (active) in assay [9]; 2.58 µM (inactive) in assay [10]; 0.904 µM (active) in [11]; 0.667 µM (active) in [12]. In addition, the GI50 in [13] is 8.87 µM (inactive); in assay [14] it was > 10 µM (inactive); in assay [15], 3.72 µM (inactive); in assay [16], 0.998 µM (active); in assay [18], 1.96 µM (inactive).
Regarding `CC(C)=NN/C(=N\c1ccc(Cl)cc1)NS(=O)(=O)c1ccc(Oc2cccc(Cl)c2C#N)cc1`, the GI50 in [1], in [2], in assay [4], in assay [5], in [6] and in assay [19] was > 100 µM (inactive) in each case. Further, the GI50 in assay [7], in assay [8], in assay [9], in assay [10], in assay [11] and in assay [12] was > 100 µM (inactive) in each case. Further, the GI50 in [13], in [14], in [15], in [16], in [17] and in assay [18] was > 100 µM (inactive) throughout.
On to `COc1cc(/C=C2\CC3C4CC=C5C[C@@H](O)CC[C@]5(C)C4CC[C@]3(C)\C2=N\O)cc(OC)c1OC` (some centres undefined), for which the GI50 in assay [1] was 10.3 µM (inactive); in assay [2], 7.6 µM (inactive); in assay [3], 6.93 µM (inactive); in assay [4] it was 4.66 µM (inactive); in assay [5], 4.93 µM (inactive); in assay [6], 4.65 µM (inactive). The GI50 was 14.2 µM (inactive) in assay [19]; 7.31 µM (inactive) in [7]; 34.4 µM (inactive) in [8]; 6.28 µM (inactive) in assay [9]; 4.61 µM (inactive) in [10]; 7.96 µM (inactive) in [11]. In addition, the GI50 in [12] is 3.94 µM (inactive); in assay [13] it was 3.73 µM (inactive); in [14], 21.3 µM (inactive); in [15], 4.99 µM (inactive); in [16] it was 8.45 µM (inactive); in assay [17], 7.53 µM (inactive). Besides, the GI50 in assay [18] was 7.29 µM (inactive).
Turning to `Cc1cccc(N2C(=O)C3c4[nH]c5ccccc5c4C4CCC(C(C)(C)C)CC4C3C2=O)c1` (centres undefined), the GI50 was 16.8 µM (inactive) in assay [1]; 15.7 µM (inactive) in assay [2]; 13.1 µM (inactive) in assay [3]; 3.63 µM (inactive) in assay [4]; 11.1 µM (inactive) in assay [5]; 10.6 µM (inactive) in [6]. In addition, the GI50 in assay [19] is 16.3 µM (inactive); in assay [7], 9.53 µM (inactive); in assay [8] it was 5.89 µM (inactive); in assay [9], 17.3 µM (inactive); in assay [10], 46.3 µM (inactive); in assay [11] it was 18.7 µM (inactive). The GI50 in [12] is 13.1 µM (inactive); in assay [13] it was 11.9 µM (inactive); in assay [14], 13.2 µM (inactive); in assay [15], 6.19 µM (inactive); in assay [16], 3.5 µM (inactive); in [17] it was 14.2 µM (inactive). Moreover, in assay [18], the GI50 is 14 µM (inactive).
For `CSc1ccc(C=C2N=C(c3ccccc3)N(c3cc(C(=O)c4ccccc4)ccc3N3C(=O)/C(=C/c4ccc(SC)cc4)N=C3c3ccccc3)C2=O)cc1`, the GI50 was > 100 µM (inactive) in [1]; 46 µM (inactive) in assay [2]; 71.8 µM (inactive) in [3]; 69.3 µM (inactive) in [4]; 43.5 µM (inactive) in [6]; > 100 µM (inactive) in assay [19]. For the same compound, the GI50 in assay [7] was 80.5 µM (inactive); in [8], 46 µM (inactive); in assay [9], 27 µM (inactive); in [10], 8.04 µM (inactive); in assay [12], 56.1 µM (inactive); in [13], 56.9 µM (inactive). Moreover, the GI50 in [14] was > 100 µM (inactive); in assay [15] it was 51.2 µM (inactive); in assay [16], 39.4 µM (inactive); in assay [17] it was 51.1 µM (inactive); in [18], 22.2 µM (inactive).
In the case of `C/C(=N\NC(=O)CC#N)C(CN1CCCCC1)C(c1ccccc1)c1c(O)c2ccccc2oc1=O` (centres undefined), the GI50 in assay [1] was > 100 µM (inactive); in [2] it was 48.9 µM (inactive); in [3] it was 21.7 µM (inactive); in assay [4], 78 µM (inactive); in assay [5], 58.2 µM (inactive); in assay [6], 45.7 µM (inactive). Besides, the GI50 in assay [19] is > 100 µM (inactive); in assay [7], 35.5 µM (inactive); in assay [8], 55 µM (inactive); in assay [9] it was 58.6 µM (inactive); in [10] it was 27.2 µM (inactive); in assay [11], 52.1 µM (inactive). In addition, the GI50 in assay [12] was 64.7 µM (inactive); in assay [13], 18.6 µM (inactive); in [14], 80.4 µM (inactive); in [16], 63.5 µM (inactive); in assay [17], 91.8 µM (inactive); in assay [18], 47.5 µM (inactive).
Consider `COC(=O)c1ccccc1/C=C1\Cc2c(ccc3c2CCC3)C1=O`, for which the GI50 was > 100 µM (inactive) in [1]; > 100 µM (inactive) in [2]; > 100 µM (inactive) in assay [3]; 70 µM (inactive) in [4]; > 100 µM (inactive) in assay [5]; > 100 µM (inactive) in [6]. Further, the GI50 was > 100 µM (inactive) in assay [19]; > 100 µM (inactive) in [8]; 68.4 µM (inactive) in assay [9]; > 100 µM (inactive) in assay [10]; > 100 µM (inactive) in assay [11]; > 100 µM (inactive) in assay [12]. For the same compound, the GI50 in assay [13] is > 100 µM (inactive); in assay [14], > 100 µM (inactive); in assay [15] it was > 100 µM (inactive); in [16], 78.9 µM (inactive); in assay [20], > 100 µM (inactive); in assay [17], > 100 µM (inactive). In assay [18], the GI50 is > 100 µM (inactive).
Consider `Cc1ccc(/N=N\c2c(O)ccc3cc(S(=O)(=O)O)ccc23)cc1`, for which the GI50 in assay [1], in assay [2], in assay [3], in assay [4], in assay [5] and in assay [6] was > 100 µM (inactive) each time. In addition, the GI50 in [19], in [7], in assay [8], in assay [9], in [10] and in [11] was > 100 µM (inactive) throughout. Moreover, the GI50 in [12], in [13], in [14], in assay [15], in assay [16] and in [17] was > 100 µM (inactive) each time. Moreover, the GI50 in assay [18] is > 100 µM (inactive).

Values taken from ChEMBL document CHEMBL1201862, “PubChem BioAssay data set” (2004).
